{"source": "paper PMC12040169", "about": "(PLOS Biology, 2025)", "data": [{"assay": "in vitro", "details": "human, hela cells, % viability", "units": {"viability at 28.5 h, 10 µM": "%"}, "values": [{"smiles": "COc1ccc(OC)c(NC(=O)CSc2nnc(-c3ccncc3)s2)c1", "note": "[CBK269209]", "viability at 28.5 h, 10 µM": 97.2}, {"smiles": "O=S(=O)(N1CCCCCC1)N1CCN(S(=O)(=O)N2CCCCCC2)CC1", "note": "[CBK269210]", "viability at 28.5 h, 10 µM": 88.3}, {"smiles": "C=C(C)CN1CCN(C(=O)c2cc3cccc(OC)c3oc2=O)CC1", "note": "[CBK269211]", "viability at 28.5 h, 10 µM": 59}, {"smiles": "O=C(CN1CCOCC1)NC(=O)Nc1ccccc1", "note": "[CBK269213]", "viability at 28.5 h, 10 µM": 98}, {"smiles": "COCCN(Cc1cc2ccc(C)cc2nc1O)S(=O)(=O)c1ccccc1", "note": "[CBK269216]", "viability at 28.5 h, 10 µM": 99.6}, {"smiles": "COC(=O)c1c(NC(=O)C2CC(=O)NN2C)sc2c1CCC2", "note": "(centres unmarked) [CBK269218A]", "viability at 28.5 h, 10 µM": 89.2}, {"smiles": "O=S(=O)(N1CCCCCC1)N1CCNCC1", "note": "[CBK269219C]", "viability at 28.5 h, 10 µM": 96.5}, {"smiles": "Cc1ccccc1OCc1nn2c(C)nnc2s1", "note": "[CBK269220]", "viability at 28.5 h, 10 µM": 100}, {"smiles": "COC(=O)c1ccc(N2CCN(C)CC2)c(NC(=O)c2cc(Br)ccc2OC)c1", "note": "[CBK269221]", "viability at 28.5 h, 10 µM": 92}, {"smiles": "Cc1ccc(S(=O)(=O)NCCc2ccccn2)s1", "note": "[CBK269223]", "viability at 28.5 h, 10 µM": 102}, {"smiles": "Cn1c(=O)c2c(nc(CN3CCOCC3)n2Cc2c(F)cccc2Cl)n(C)c1=O", "note": "[CBK269224]", "viability at 28.5 h, 10 µM": 98.9}, {"smiles": "Cc1nnc(SCC(=O)Nc2nonc2C)s1", "note": "[CBK269227]", "viability at 28.5 h, 10 µM": 98.9}, {"smiles": "CSCCC(C(=O)O)n1c(S)nnc1-c1ccc2ccccc2n1", "note": "(centres unmarked) [CBK269230]", "viability at 28.5 h, 10 µM": 99.5}, {"smiles": "COc1ccc(-c2oc3ccccc3c(=O)c2OCC(=O)O)cc1", "note": "[CBK269232]", "viability at 28.5 h, 10 µM": 98.7}, {"smiles": "O=C(NCCCN1CCOCC1)Nc1ccccc1F", "note": "[CBK269233]", "viability at 28.5 h, 10 µM": 88.6}, {"smiles": "c1ccc(Cn2c(CN3CCCCC3)nc3ccccc32)cc1", "note": "[CBK269237]", "viability at 28.5 h, 10 µM": 102}, {"smiles": "O=C(CCN1C(=O)c2ccc(Br)cc2C1=O)N1CCN(Cc2ccccc2)CC1", "note": "[CBK269238]", "viability at 28.5 h, 10 µM": 104}, {"smiles": "COC(=O)c1ccc(NC(=O)CSc2nnc(-c3ccncc3)s2)cc1", "note": "[CBK269239]", "viability at 28.5 h, 10 µM": 103}, {"smiles": "COc1ccc(/C=C/c2nc(C#N)c(NCc3cccnc3)o2)cc1OC", "note": "[CBK269240]", "viability at 28.5 h, 10 µM": 91.3}, {"smiles": "O=C(NCCc1cc2ccccc2[nH]1)Nc1cccc2ccccc12", "note": "[CBK269246]", "viability at 28.5 h, 10 µM": 106}, {"smiles": "COc1ccccc1NC(=O)c1sc2nc(N3CCOCC3)c3c(c2c1N)CCCC3", "note": "[CBK269247]", "viability at 28.5 h, 10 µM": 103}, {"smiles": "Cc1c(NC(=O)CN2CCCC(C)C2)ccc2nsnc12", "note": "(centres unmarked) [CBK269248]", "viability at 28.5 h, 10 µM": 97.4}, {"smiles": "Cc1ccc(C(=O)N2CCN(S(=O)(=O)N3CCCCCC3)CC2)cc1", "note": "[CBK269249]", "viability at 28.5 h, 10 µM": 101}, {"smiles": "CS(=O)(=O)N1CCN(c2ccccc2NC(=O)COc2ccccc2Cl)CC1", "note": "[CBK269250]", "viability at 28.5 h, 10 µM": 103}, {"smiles": "O=C(O)c1cccc(-n2c(S)nnc2-c2cnccn2)c1", "note": "[CBK269252]", "viability at 28.5 h, 10 µM": 104}, {"smiles": "O=C(COc1ccc(S(=O)(=O)N2CCCCC2)cc1Cl)NCc1ccccn1", "note": "[CBK269253]", "viability at 28.5 h, 10 µM": 89.6}, {"smiles": "Cc1cc(S(=O)(=O)N2CCCCC2)ccc1OCC(=O)O", "note": "[CBK269254]", "viability at 28.5 h, 10 µM": 80}, {"smiles": "O=C(O)CCN1CCN(S(=O)(=O)c2ccc3ccccc3c2)CC1", "note": "[CBK269255]", "viability at 28.5 h, 10 µM": 88.4}, {"smiles": "O=C(c1cccs1)N(Cc1ccco1)c1ccc(O)cc1", "note": "[CBK269256]", "viability at 28.5 h, 10 µM": 88.9}, {"smiles": "Cn1c(=O)c2c(nc(CN3CCOCC3)n2CCc2ccccc2)n(C)c1=O", "note": "[CBK269264]", "viability at 28.5 h, 10 µM": 89.3}, {"smiles": "COc1ccccc1N1CCn2c1nc1c2c(=O)n(CCN2CCOCC2)c(=O)n1C", "note": "[CBK269265]", "viability at 28.5 h, 10 µM": 93.4}, {"smiles": "Cc1ccc(S(=O)(=O)CCOc2nc3c(C(F)(F)F)cc(C4CC4)nc3o2)cc1", "note": "[CBK269267]", "viability at 28.5 h, 10 µM": 111}, {"smiles": "COC(=O)c1c(NC(=O)C(=O)NCc2ccco2)sc2c1CCCC2", "note": "[CBK269269]", "viability at 28.5 h, 10 µM": 87.5}, {"smiles": "CN1CCN(CC(=O)C(C#N)c2ccccc2)CC1", "note": "(centres unmarked) [CBK269270]", "viability at 28.5 h, 10 µM": 87.7}, {"smiles": "COc1ccc(-c2noc(CNC(=O)Cc3ccc(-c4ccccc4)cc3)n2)cc1", "note": "[CBK269272]", "viability at 28.5 h, 10 µM": 105}, {"smiles": "Cc1ccc2cc(CN(Cc3ccco3)C(=O)c3cccs3)c(O)nc2c1", "note": "[CBK269274]", "viability at 28.5 h, 10 µM": 105}, {"smiles": "COC(=O)c1ccccc1NC(=O)CC1Nc2ccccc2NC1=O", "note": "(centres unmarked) [CBK269276A]", "viability at 28.5 h, 10 µM": 91.9}, {"smiles": "c1ccc2c(c1)OCC(c1nn3cnnc3s1)O2", "note": "(centres unmarked) [CBK269277]", "viability at 28.5 h, 10 µM": 111}, {"smiles": "Cn1c(=O)c2c(nc(CN3CCCCC3)n2CCCO)n(C)c1=O", "note": "[CBK269280]", "viability at 28.5 h, 10 µM": 106}, {"smiles": "Cn1c(=O)c2c(nc(CN3CCCCC3)n2CCN2CCOCC2)n(C)c1=O", "note": "[CBK269281]", "viability at 28.5 h, 10 µM": 99.2}, {"smiles": "Cn1c(=O)[nH]c(=O)c2c1nc(Sc1ncccn1)n2CCCc1ccccc1", "note": "[CBK269282]", "viability at 28.5 h, 10 µM": 86.3}, {"smiles": "Cc1onc(-c2ccccc2Cl)c1C(=O)N(Cc1nc(-c2ccccc2)no1)C(C)C", "note": "[CBK269289]", "viability at 28.5 h, 10 µM": 113}, {"smiles": "CCN1CCN(C(=S)c2ccc(OCC(N)=O)c(OC)c2)CC1", "note": "[CBK269293]", "viability at 28.5 h, 10 µM": 86.1}, {"smiles": "COc1ccc2c(CCNC(=O)C(c3ccccc3)c3ccccc3)c[nH]c2c1", "note": "[CBK269294]", "viability at 28.5 h, 10 µM": 81.3}, {"smiles": "CC(=O)Nc1cccc(C(=O)N(Cc2ccccc2)Cc2ccccc2)c1", "note": "[CBK269295]", "viability at 28.5 h, 10 µM": 91.6}, {"smiles": "COc1ccc2[nH]cc(CCNC(=O)c3ccc(NC(C)=O)cc3)c2c1", "note": "[CBK269296]", "viability at 28.5 h, 10 µM": 96.6}, {"smiles": "Cc1ccc2cc(CN(Cc3ccco3)C(=O)C3CCCO3)c(O)nc2c1", "note": "(centres unmarked) [CBK269300]", "viability at 28.5 h, 10 µM": 103}, {"smiles": "O=C(CC(C(=O)O)n1cncn1)c1ccc(Br)cc1", "note": "(centres unmarked) [CBK269305]", "viability at 28.5 h, 10 µM": 103}, {"smiles": "CN1CCN(Cc2nc3c(c(=O)n(C)c(=O)n3C)n2Cc2ccc(Br)cc2)CC1", "note": "[CBK269310]", "viability at 28.5 h, 10 µM": 87.9}, {"smiles": "Cc1c(C(=O)C2=C(O)C(=O)N(CCCN(C)C)C2c2cccnc2)cnn1-c1ccccc1", "note": "(centres unmarked) [CBK269312]", "viability at 28.5 h, 10 µM": 93.8}, {"smiles": "C=CCNS(=O)(=O)c1ccc(NC(=O)Nc2ccc(Cl)cc2)cc1", "note": "[CBK269315]", "viability at 28.5 h, 10 µM": 101}, {"smiles": "Fc1c(F)c(Oc2ccccc2Cl)c(F)c(F)c1/C=C/CN1CCOCC1", "note": "[CBK269318C]", "viability at 28.5 h, 10 µM": 96.7}, {"smiles": "COc1ccc(OC)c(-n2c(S)nnc2Cn2c(-c3ccccn3)nc3ccccc32)c1", "note": "[CBK269320]", "viability at 28.5 h, 10 µM": 93.5}, {"smiles": "O=C(O)c1ccccc1SC1CC(=O)N(CCc2ccccc2)C1=O", "note": "(centres unmarked) [CBK269321]", "viability at 28.5 h, 10 µM": 93.6}, {"smiles": "CC1CCCCN1Cc1nc2c(c(=O)n(C)c(=O)n2C)n1CCCc1ccccc1", "note": "(centres unmarked) [CBK269326]", "viability at 28.5 h, 10 µM": 97}, {"smiles": "Cn1c(=O)n(CCN2CCOCC2)c(=O)c2c1nc1n2CCN1c1ccccc1", "note": "[CBK269328]", "viability at 28.5 h, 10 µM": 95.1}, {"smiles": "Cc1ccc2cc(CN(Cc3ccccc3)S(C)(=O)=O)c(O)nc2c1", "note": "[CBK269329]", "viability at 28.5 h, 10 µM": 94.4}, {"smiles": "Cc1ccc2nsnc2c1NC(=O)CN1CCCCC1", "note": "[CBK269330]", "viability at 28.5 h, 10 µM": 110}, {"smiles": "Cc1cccc(NC(=O)C(c2ccccc2)N2CCOCC2)c1", "note": "(centres unmarked) [CBK269331]", "viability at 28.5 h, 10 µM": 103}, {"smiles": "N#CC(C(=O)CN1CCCC1)c1ccccc1", "note": "(centres unmarked) [CBK269333]", "viability at 28.5 h, 10 µM": 98.1}, {"smiles": "Cc1ncc([N+](=O)[O-])n1CC(=O)Nc1ccccc1F", "note": "[CBK269335]", "viability at 28.5 h, 10 µM": 86.4}, {"smiles": "COc1ccccc1CC(=O)NCc1nc(-c2cccc(C)c2)no1", "note": "[CBK269336]", "viability at 28.5 h, 10 µM": 96.7}, {"smiles": "O=C1CC(Nc2ccc(N3CCOCC3)cc2)C(=O)N1CCc1ccccc1", "note": "(centres unmarked) [CBK269339]", "viability at 28.5 h, 10 µM": 111}, {"smiles": "CC1CN(Cc2nc3c(c(=O)n(C)c(=O)n3C)n2CCN2CCOCC2)CC(C)O1", "note": "(centres unmarked) [CBK269340]", "viability at 28.5 h, 10 µM": 93.3}, {"smiles": "Cc1c(NC(=O)CSc2nnc(-c3ccc4ccccc4n3)s2)c(=O)n(-c2ccccc2)n1C", "note": "[CBK269341]", "viability at 28.5 h, 10 µM": 92.7}]}]}
